# Patent publication US7402548B2, “Benzoxazole compounds, process for producing the same and herbicides” (Kyoyu Agri Co., Ltd., priority 2000, dated 2008)
# Columns and labels:
# bulrush = assay: Herbicidal test for paddy field; format: in vivo, Scrips juncoides; details: 500 g/ha, dropwise addition to paddy water at 1.5 leaf stage of barnyard grass; glass house 25° C., 3 weeks; rank 0-5 vs non-treated district
# Protocol: (§1) Wagner pots, each having an area of 1/5000 are, were packed with Ube soil (alluvial soil) and planted with seeds or tubers of young rice plant, barnyard grass, bulrush, Cyperus serotinus Rottb., arrowhead and monochoria. Then, the pots were filled with water to a depth of 3 cm.
# (§2) Each wettable powder of the desired Compounds (I) shown in Tables 1 to 21, 24, 25, 28 and 29 prepared in accordance with Example 2 was diluted with water containing a surfactant (0.05%) and subjected to dropwise addition treatment by using pipet so that an effective concentration of the compound (I) in each herbicide became 500 g/ha at 1.5 leaf stage of barnyard grass.
# (§3) These plants were controlled in a glass house at an average temperature of 25° C. for 3 weeks, and then herbicidal effects thereof were investigated.
# (§4) The herbicidal effects are evaluated according to the following 6 ranks as compared with non-treated district. (0: normal development, 1: Less damaged, 2: Slightly damaged, 3: Moderately damaged, 4: Severely damaged, 5: All killed). Incidentally, “-” in the column means not investigated.
# velvetleaf [1] = assay: Foliar spread test for upland field; format: in vivo, Abutilon theophrasti; set-up: key: 0 = normal development, 5 = all killed (6 ranks vs. untreated); details: foliar spray, 500 ppm, 3 weeks, glass house 25° C.
# Procedure, shortened: (§5)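 Seeds were sown in volcanic ash soil in Wagner pots and grown about 2 weeks in a glass house at an average 25° C. Wettable-powder formulations diluted to 500 ppm in water with 0.5% surfactant were sprayed uniformly over the plants. After 3 further weeks at 25° C, damage was scored 0 (normal) to 5 (all killed) against untreated plants.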
# morning glory [2] = assay: Foliar spread test for upland field; format: in vivo, Ipomoea spps.; set-up: key: 0 = normal development, 5 = all killed (6 ranks vs. untreated); details: foliar spray, 500 ppm, 3 weeks, glass house 25° C.
# Procedure, shortened: as §5
# green foxtail [3] = assay: Foliar spread test for upland field; format: in vivo, Setaria viridis; set-up: key: 0 = normal development, 5 = all killed (6 ranks vs. untreated); details: foliar spray, 500 ppm, 3 weeks, glass house 25° C.
# Procedure, shortened: as §5
# Xanthium pensylvanicum = assay: Foliar spread test for upland field; format: in vivo; set-up: key: 0 = normal development, 5 = all killed; details: foliar spray, 500 ppm, 3 weeks, glass house 25° C.
# Protocol: as §4
# (§6) Wagner pots, each having an area of 1/5000 are, were packed with volcanic ash soil and then each seed of corn, soybean, cotton, wheat, solgum, sugar beat, Large crabgrass, barnyardgrjass, green foxtail, blackgrass, annual bluegrass, common lambsquarters, livid amaranth, velvetleaf, morning glory, Xanthium pensylvanicum and Cassia obtusifolia was planted, covered with soil and grown in a glass house at an average temperature of 25° C. for about 2 weeks.
# (§7) Each wettable powder of the desired compounds (I) shown in Tables 1 to 21, 24, 25, 28 and 29 prepared in accordance with Example 2 was diluted to 500 ppm with water containing a surfactant (0.5%) and then uniformly sprayed on the above respective plants.
# (§8) After these plants were controlled in a glass house at an average temperature of 25° C. for 3 weeks, the herbicidal effects thereof were investigated.
# (§9) The herbicidal effects were evaluated according to the evaluation method described in the above (1).
# Cassia obtusifolia = assay: Foliar spread test for upland field; format: in vivo; set-up: key: 0 = normal development, 5 = all killed; details: foliar spray, 500 ppm, 3 weeks, glass house 25° C.
# Protocol: as §4, §6, §7, §8, §9
# Large crabgrass [4] = assay: Foliar spread test for upland field; format: in vivo, Digitaria adscendens; set-up: key: 0 = normal development, 5 = all killed (6 ranks vs. untreated); details: foliar spray, 500 ppm, 3 weeks, glass house 25° C.
# Procedure, shortened: as §5
# livid amaranth [5] = assay: Foliar spread test for upland field; format: in vivo, Amaranthus lividus; set-up: key: 0 = normal development, 5 = all killed (6 ranks vs. untreated); details: foliar spray, 500 ppm, 3 weeks, glass house 25° C.
# Procedure, shortened: as §5
# blackgrass [6] = assay: Foliar spread test for upland field; format: in vivo, Alopecurus aegualis; set-up: key: 0 = normal development, 5 = all killed (6 ranks vs. untreated); details: foliar spray, 500 ppm, 3 weeks, glass house 25° C.
# Procedure, shortened: as §5
# sugar beat [7] = assay: Foliar spread test for upland field; format: in vivo; set-up: key: 0 = normal development, 5 = all killed (6 ranks vs. untreated); details: foliar spray, 500 ppm, 3 weeks, glass house 25° C.
# Procedure, shortened: as §5
# corn [8] = assay: Foliar spread test for upland field; format: in vivo; set-up: key: 0 = normal development, 5 = all killed (6 ranks vs. untreated); details: foliar spray, 500 ppm, 3 weeks, glass house 25° C.
# Procedure, shortened: as §5
# cotton = assay: Foliar spread test for upland field; format: in vivo; set-up: key: 0 = normal development, 5 = all killed (6 ranks vs. untreated); details: foliar spray, 500 ppm, 3 weeks, glass house 25° C.
# Procedure, shortened: as §5
# solgum [9] = assay: Foliar spread test for upland field; format: in vivo; set-up: key: 0 = normal development, 5 = all killed (6 ranks vs. untreated); details: foliar spray, 500 ppm, 3 weeks, glass house 25° C.
# Procedure, shortened: as §5
# soybean [10] = assay: Foliar spread test for upland field; format: in vivo; set-up: key: 0 = normal development, 5 = all killed (6 ranks vs. untreated); details: foliar spray, 500 ppm, 3 weeks, glass house 25° C.
# Procedure, shortened: as §5
# wheat [11] = assay: Foliar spread test for upland field; format: in vivo; set-up: key: 0 = normal development, 5 = all killed (6 ranks vs. untreated); details: foliar spray, 500 ppm, 3 weeks, glass house 25° C.
# Procedure, shortened: as §5
# barnyardgrjass = assay: Foliar spread test for upland field; format: in vivo, Eschinochloa crusgalli; set-up: key: 0 = normal development, 5 = all killed (6 ranks vs. untreated); details: foliar spray, 500 ppm, 3 weeks, glass house 25° C.
# Procedure, shortened: as §5
# arrowhead = assay: Herbicidal test for paddy field; format: in vivo, Sagittaria pygmaea; details: 500 g/ha, dropwise addition to paddy water at 1.5 leaf stage of barnyard grass; glass house 25° C., 3 weeks; rank 0-5 vs non-treated district
# Protocol: as §1, §2, §3, §4
# barnyard grass [12] = assay: Herbicidal test for paddy field; format: in vivo, Eschinochloa crusgalli; details: 500 g/ha, dropwise addition to paddy water at 1.5 leaf stage of barnyard grass; glass house 25° C., 3 weeks; rank 0-5 vs non-treated district
# Protocol: as §1, §2, §3, §4
# annual bluegrass [13] = assay: Foliar spread test for upland field; format: in vivo, Poa annua; set-up: key: 0 = normal development, 5 = all killed (6 ranks vs. untreated); details: foliar spray, 500 ppm, 3 weeks, glass house 25° C.
# Procedure, shortened: as §5
# Cyperus serotinus Rottb. = assay: Herbicidal test for paddy field; format: in vivo; details: 500 g/ha, dropwise addition to paddy water at 1.5 leaf stage of barnyard grass; glass house 25° C., 3 weeks; rank 0-5 vs non-treated district
# Protocol: as §1, §2, §3, §4
# common lambsquarters [14] = assay: Foliar spread test for upland field; format: in vivo, Chenopodium album; set-up: key: 0 = normal development, 5 = all killed (6 ranks vs. untreated); details: foliar spray, 500 ppm, 3 weeks, glass house 25° C.
# Procedure, shortened: as §5
# blackgrass [15] = assay: Soil treatment test for upland field; format: in vivo, Alopecurus aegualis; set-up: key: 0 = normal development, 5 = all killed; details: 500 g/ha, 3 weeks, glass house 25° C.
# Procedure, shortened: (§10)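 Read-out is a six-rank visual damage score, from 0 for normal development to 5 for all plants killed, relative to untreated pots. It is taken 3 weeks after the compound, as wettable powder at 500 g/ha, is sprayed onto freshly seeded alluvial soil.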
# barnyard grass [16] = assay: Soil treatment test for upland field; format: in vivo, Eschinochloa crusgalli; set-up: key: 0 = normal development, 5 = all killed; details: 500 g/ha, 3 weeks, glass house 25° C.
# Procedure, shortened: as §10
# livid amaranth [17] = assay: Soil treatment test for upland field; format: in vivo, Amaranthus lividus; set-up: key: 0 = normal development, 5 = all killed; details: 500 g/ha, 3 weeks, glass house 25° C.
# Procedure, shortened: as §10
# sugar beat [18] = assay: Soil treatment test for upland field; format: in vivo; set-up: key: 0 = normal development, 5 = all killed; details: 500 g/ha, 3 weeks, glass house 25° C.
# Procedure, shortened: as §10
# corn [19] = assay: Soil treatment test for upland field; format: in vivo; set-up: key: 0 = normal development, 5 = all killed; details: 500 g/ha, 3 weeks, glass house 25° C.
# Procedure, shortened: as §10
# solgum [20] = assay: Soil treatment test for upland field; format: in vivo; set-up: key: 0 = normal development, 5 = all killed; details: 500 g/ha, 3 weeks, glass house 25° C.
# Procedure, shortened: as §10
# soybean [21] = assay: Soil treatment test for upland field; format: in vivo; set-up: key: 0 = normal development, 5 = all killed; details: 500 g/ha, 3 weeks, glass house 25° C.
# Procedure, shortened: as §10
# wheat [22] = assay: Soil treatment test for upland field; format: in vivo; set-up: key: 0 = normal development, 5 = all killed; details: 500 g/ha, 3 weeks, glass house 25° C.
# Procedure, shortened: as §10
# annual bluegrass [23] = assay: Soil treatment test for upland field; format: in vivo, Poa annua; set-up: key: 0 = normal development, 5 = all killed; details: 500 g/ha, 3 weeks, glass house 25° C.
# Procedure, shortened: as §10
# green foxtail [24] = assay: Soil treatment test for upland field; format: in vivo, Setaria viridis; set-up: key: 0 = normal development, 5 = all killed; details: 500 g/ha, 3 weeks, glass house 25° C.
# Procedure, shortened: as §10
# velvetleaf [25] = assay: Soil treatment test for upland field; format: in vivo, Abutilon theophrasti; set-up: key: 0 = normal development, 5 = all killed; details: 500 g/ha, 3 weeks, glass house 25° C.
# Procedure, shortened: as §10
# common lambsquarters [26] = assay: Soil treatment test for upland field; format: in vivo, Chenopodium album; set-up: key: 0 = normal development, 5 = all killed; details: 500 g/ha, 3 weeks, glass house 25° C.
# Procedure, shortened: as §10
# Large crabgrass [27] = assay: Soil treatment test for upland field; format: in vivo, Digitaria adscendens; set-up: key: 0 = normal development, 5 = all killed; details: 500 g/ha, 3 weeks, glass house 25° C.
# Procedure, shortened: as §10
# morning glory [28] = assay: Soil treatment test for upland field; format: in vivo, Ipomoea spps.; set-up: key: 0 = normal development, 5 = all killed; details: 500 g/ha, 3 weeks, glass house 25° C.
# Procedure, shortened: as §10
SMILES,Effects Bulrush (bulrush),Effects Velvetleaf (velvetleaf [1]),Effects Morning glory (morning glory [2]),Effects Green foxtail (green foxtail [3]),Effects Large crabgrass (Large crabgrass [4]),Effects Livid amaranth (livid amaranth [5]),Effects Blackgrass (blackgrass [6]),Effects Sugar beat (sugar beat [7]),Effects Corn (corn [8]),Effects Sotton (cotton),Effects Solgum (solgum [9]),Effects Soybean (soybean [10]),Effects Wheat (wheat [11]),Effects Barnyardgrass (barnyardgrjass),Effects Barnyardgrass (barnyard grass [12]),Effects Annual bluegrass (annual bluegrass [13]),Effects Cyperus serotinus Rottb. (Cyperus serotinus Rottb.),Effects Common lambsquarters (common lambsquarters [14]),Effects Blackgrass (blackgrass [15]),Effects Barnyardgrass (barnyard grass [16]),other results
N#Cc1ccc2oc(-c3cccc(Oc4cccc(C(F)(F)F)c4)n3)nc2c1 [I-a-18],0,4,5,5,2,5,1,4,1,4,1,3,1,1,3,2,0,4,,,Effects Common Cocklebur (Xanthium pensylvanicum): 4; Effects Sicklepod (Cassia obtusifolia): 5; Effects Arrowhead (arrowhead): 0
CCC(=Cc1cccc(C(F)(F)F)c1)c1nc2cc(C#N)c(F)cc2o1 [I-c-137],4,4,5,4,4,5,3,4,3,4,2,5,2,3,4,4,2,5,5,5,Effects Livid amaranth (livid amaranth [17]): 5; Effects Sugar beat (sugar beat [18]): 5; Effects Corn (corn [19]): 2; Effects Solgum (solgum [20]): 2; Effects Soybean (soybean [21]): 3; Effects Wheat (wheat [22]): 1; Effects Annual bluegrass (annual bluegrass [23]): 5; Effects Green foxtail (green foxtail [24]): 5; Effects Velvetleaf (velvetleaf [25]): 5; Effects Common lambsquarters (common lambsquarters [26]): 5; Effects Large crabgrass (Large crabgrass [27]): 5; Effects Morning glory (morning glory [28]): 5
CCCC(=Cc1cccc(C(F)(F)F)c1)c1nc2cc(C#N)c(F)cc2o1 [I-c-139],3,4,5,4,4,5,4,4,2,4,2,5,2,3,4,4,1,5,5,5,Effects Livid amaranth (livid amaranth [17]): 5; Effects Sugar beat (sugar beat [18]): 5; Effects Corn (corn [19]): 2; Effects Solgum (solgum [20]): 3; Effects Soybean (soybean [21]): 5; Effects Wheat (wheat [22]): 2; Effects Annual bluegrass (annual bluegrass [23]): 5; Effects Green foxtail (green foxtail [24]): 5; Effects Velvetleaf (velvetleaf [25]): 5; Effects Common lambsquarters (common lambsquarters [26]): 5; Effects Large crabgrass (Large crabgrass [27]): 5; Effects Morning glory (morning glory [28]): 5
